Experimental data taken from US8952033B2, “4-anilinofuro[2,3-b]quinoline derivatives, their preparation processes, and pharmaceutical compositions comprising the same” (Kaohsiung Medical University, priority 2011, dated 2015).

Columns and labels:
[1] = system: NCI-H460 (non-small cell lung carcinoma cell); test: MTT antiproliferative assay (cell growth %, GI50), NCI-H460; type: cell-based; conditions: Homo sapiens, NCI-H460, 48 hours, MTT; for activity at 4000 µg/mL: 4 mg/ml; for activity at 20000 µg/mL: 20 mg/ml
Description: (§1) Antiproliferative activities of the compounds of this invention were evaluated substantially according to the method as described in Tseng, C. […] The cells were treated with the test compounds, i.e., the compounds of this invention (in dimethylsulfoxide (DMSO)), or DMSO for 48 hours.
(§2) Before and after the treatment with the test compounds or DMSO, 3-(4,5-dimethylthiazol-2-yl)-2,5-diphenyltetrazolium bromide (MTT, 2 mg/mL, 100 μL) was added to each of the cultures, followed by cultivation for 2 hours. The resultant formazan was dissolved by the addition of DMSO. Absorbance at 570 nm (OD570) was measured using a microtiter plate reader (Dynex MRX-II).
(§3) Determination of GI50 was conducted thrice for each test compound. GI50 is expressed as mean±SD.

[2] = system: MCF-7 (breast cancer cell); test: MTT antiproliferative assay (cell growth %, GI50), MCF-7; type: cell-based; conditions: Homo sapiens, MCF7, 48 hours, MTT; for activity at 4000 µg/mL: 4 mg/ml; for activity at 20000 µg/mL: 20 mg/ml
Description: as §1, §2, §3

Structure (SMILES) | activity at 4000 µg/mL [1] | activity at 20000 µg/mL [1] | activity at 4000 µg/mL [2] | activity at 20000 µg/mL [2]
C/C(=N\OCCN1CCOCC1)c1ccc(Nc2c3ccccc3nc3occc23)cc1 [Compound 13g, (E)-1-(4-(Furo[2,3-b]quinolin-4-ylamino)phenyl)ethanone O-2-morpholinoethyl oxime] | 108% | 23% | 120% | 56%
C/C(=N\OCCCN(C)C)c1ccc(Nc2c3ccccc3nc3occc23)cc1 [Compound 13d, (E)-1-(4-(Furo[2,3-b]quinolin-4-ylamino)phenyl)ethanone O-3-(dimethylamino)propyl oxime] | 52% | 7% | 84% | 22%
C/C(=N\OCCCCN1CCOCC1)c1ccc(Nc2c3ccccc3nc3occ(Cl)c23)cc1 [Compound 14h, (E)-1-(4-(3-Chlorofuro[2,3-b]quinolin-4-ylamino)phenyl)ethanone O-4-morpholinobutyl oxime] | 91% | 3% | 75% | -3%
COc1ccc2c(Nc3ccc(/C(C)=N/OCCN4CCCCC4)cc3)c3ccoc3nc2c1 [Compound 15f, (E)-1-(4-(7-Methoxyfuro[2,3-b]quinolin-4-ylamino)phenyl)ethanone O-2-(piperidin-1-yl)ethyl oxime] | 84% | 9% | 77% | 2%
C/C(=N\OCCCCN1CCOCC1)c1ccc(Nc2c3ccccc3nc3occc23)cc1 [Compound 13h, (E)-1-(4-(Furo[2,3-b]quinolin-4-ylamino)phenyl)ethanone O-4-morpholinobutyl oxime] | 118% | -1% | 76% | -2%
C/C(=N\OCCN1CCOCC1)c1ccc(Nc2c3ccccc3nc3occ(Cl)c23)cc1 [Compound 14g, (E)-1-(4-(3-Chlorofuro[2,3-b]quinolin-4-ylamino)phenyl)ethanone O-2-morpholinoethyl oxime] | 107% | 16% | 112% | 54%
COc1ccc2c(Nc3ccc(/C(C)=N/OCCN4CCOCC4)cc3)c3ccoc3nc2c1 [Compound 15g, (E)-1-(4-(7-Methoxyfuro[2,3-b]quinolin-4-ylamino)phenyl)ethanone O-2-morpholinoethyl oxime] | 96% | 44% | 76% | 25%
COc1ccc2c(Nc3ccc(/C(C)=N/OCCCN(C)C)cc3)c3ccoc3nc2c1 [Compound 15d, (E)-1-(4-(7-Methoxyfuro[2,3-b]quinolin-4-ylamino)phenyl)ethanone O-3-(dimethylamino)propyl oxime] | 82% | 5% | 59% | 2%
C/C(=N\OCCN1CCCC1)c1ccc(Nc2c3ccccc3nc3occc23)cc1 [Compound 13e, (E)-1-(4-(Furo[2,3-b]quinolin-4-ylamino)phenyl)ethanone O-2-(pyrrolidin-1-yl)ethyl oxime] | 54% | 1% | 64% | 6%
C/C(=N\OCCN(C)C)c1ccc(Nc2c3ccccc3nc3occc23)cc1 [Compound 13b, (E)-1-(4-(Furo[2,3-b]quinolin-4-ylamino)phenyl)ethanone O-2-(dimethylamino)ethyl oxime] | 94% | 0% | 59% | 0%
COc1ccc2c(Nc3ccc(/C(C)=N/OCCCCN4CCOCC4)cc3)c3ccoc3nc2c1 [Compound 15h, (E)-1-(4-(7-Methoxyfuro[2,3-b]quinolin-4-ylamino)phenyl)ethanone O-4-morpholinobutyl oxime] | 89% | 21% | 83% | 75%
COc1ccc2c(Nc3ccc(/C(C)=N/OCCCN)cc3)c3c(Cl)coc3nc2c1 [Compound 16c, (E)-1-(4-(3-Chloro-7-methoxyfuro[2,3-b]quinolin-4-ylamino)phenyl)ethanone O-3-aminopropyl oxime] | 91% | 8% | 101% | 3%
COc1ccc2c(Nc3ccc(/C(C)=N/OCCN4CCCC4)cc3)c3ccoc3nc2c1 [Compound 15e, (E)-1-(4-(7-Methoxyfuro[2,3-b]quinolin-4-ylamino)phenyl)ethanone O-2-(pyrrolidin-1-yl)ethyl oxime] | 69% | 5% | 63% | 3%
C/C(=N\OCCN1CCCCC1)c1ccc(Nc2c3ccccc3nc3occ(Cl)c23)cc1 [Compound 14f, (E)-1-(4-(3-Chlorofuro[2,3-b]quinolin-4-ylamino)phenyl)ethanone O-2-(piperidin-1-yl)ethyl oxime] | 101% | 3% | 121% | 26%
C/C(=N\OCCN1CCCCC1)c1ccc(Nc2c3ccccc3nc3occc23)cc1 [Compound 13f, (E)-1-(4-(Furo[2,3-b]quinolin-4-ylamino)phenyl)ethanone O-2-(piperidin-1-yl)ethyl oxime] | 99% | -1% | 114% | 3%
COc1ccc2c(Nc3ccc(/C(C)=N/OCCCCN4CCOCC4)cc3)c3c(Cl)coc3nc2c1 [Compound 16h, (E)-1-(4-(3-Chloro-7-methoxyfuro[2,3-b]quinolin-4-ylamino)phenyl)ethanone O-4-morpholinobutyl oxime] | 87% | 20% | 96% | 5%
C/C(=N\OCCN1CCCC1)c1ccc(Nc2c3ccccc3nc3occ(Cl)c23)cc1 [Compound 14e, (E)-1-(4-(3-Chlorofuro[2,3-b]quinolin-4-ylamino)phenyl)ethanone O-2-(pyrrolidin-1-yl)ethyl oxime] | 69% | -1% | 86% | -2%
COc1ccc2c(Nc3ccc(/C(C)=N/OCCN4CCOCC4)cc3)c3c(Cl)coc3nc2c1 [Compound 16g, (E)-1-(4-(3-Chloro-7-methoxyfuro[2,3-b]quinolin-4-ylamino)phenyl)ethanone O-2-morpholinoethyl oxime] | 97% | 68% | 85% | 37%
COc1ccc2c(Nc3ccc(/C(C)=N/OCCCN)cc3)c3ccoc3nc2c1 [Compound 15c, (E)-1-(4-(7-Methoxyfuro[2,3-b]quinolin-4-ylamino)phenyl)ethanone O-3-aminopropyl oxime] | 105% | 16% | 100% | 18%
C/C(=N\OCCN(C)C)c1ccc(Nc2c3ccccc3nc3occ(Cl)c23)cc1 [Compound 14b, (E)-1-(4-(3-Chlorofuro[2,3-b]quinolin-4-ylamino)phenyl)ethanone O-2-(dimethylamino)ethyl oxime] | 68% | -1% | 70% | -3%
COc1ccc2c(Nc3ccc(/C(C)=N/OCCN(C)C)cc3)c3ccoc3nc2c1 [Compound 15b, (E)-1-(4-(7-Methoxyfuro[2,3-b]quinolin-4-ylamino)phenyl)ethanone O-2-(dimethylamino)ethyl oxime] | 75% | -1% | 67% | -1%
COc1ccc2c(Nc3ccc(/C(C)=N/OCCN4CCCC4)cc3)c3c(Cl)coc3nc2c1 [Compound 16e, (E)-1-(4-(3-Chloro-7-methoxyfuro[2,3-b]quinolin-4-ylamino)phenyl)ethanone O-2-(pyrrolidin-1-yl)ethyl oxime] | 53% | 5% | 55% | 1%
C/C(=N\OCCCN(C)C)c1ccc(Nc2c3ccccc3nc3occ(Cl)c23)cc1 [Compound 14d, (E)-1-(4-(3-Chlorofuro[2,3-b]quinolin-4-ylamino)phenyl)ethanone O-3-(dimethylamino)propyl oxime] | 52% | 1% | 61% | 1%
COc1ccc2c(Nc3ccc(/C(C)=N/OCCN4CCCCC4)cc3)c3c(Cl)coc3nc2c1 [Compound 16f, (E)-1-(4-(3-Chloro-7-methoxyfuro[2,3-b]quinolin-4-ylamino)phenyl)ethanone O-2-(piperidin-1-yl)ethyl oxime] | 67% | 3% | 56% | -1%
